Read-outs that look alike come from different tables or passages of the source.
Experiments:
MV4;11 cells = test: Cell viability assay (CellTiter-Glo) in MV4;11 cells, alone or with gilteritinib; format: cell-based; settings: Homo sapiens, read-out: MV4
MOLM-13 cells = test: Cell viability assay (CellTiter-Glo) in MOLM-13 cells, alone or with gilteritinib; format: cell-based; settings: Homo sapiens
[1] = MV4-11, 72 h, MV4;11 cells, compound alone (without gilteritinib), three days, CellTiter-Glo, 11 IC50
[2] = MV4-11, 72 h, MV4;11 cells, with gilteritinib 10 nM, three days, CellTiter-Glo, 11 IC50 gilteritinib
[3] = MOLM-13, 72 h, MOLM-13 cells, compound alone (without gilteritinib), three days, CellTiter-Glo, read-out: MOLM-13 IC50
[4] = MOLM-13, 72 h, MOLM-13 cells, with gilteritinib 20 nM, three days, CellTiter-Glo, read-out: MOLM-13 IC50 gilteritinib
[5] = MV4-11, 72 h, MV4;11 cells, compound with gilteritinib 10 nM, three days, CellTiter-Glo, 11 IC50 gilteritinib
[6] = MOLM-13, 72 h, MOLM-13 cells, compound with gilteritinib 20 nM, three days, CellTiter-Glo, read-out: MOLM-13 IC50 gilteritinib
[7] = 72 h, MV4;11 cells, compound alone (without gilteritinib), three days, CellTiter-Glo, 11 IC50
[8] = 72 h, MOLM-13 cells, compound alone (without gilteritinib), three days, CellTiter-Glo, read-out: MOLM-13 IC50

IC50 (MV4;11 cells; [1])	IC50 (MV4;11 cells; [2])	IC50 (MOLM-13 cells; [3])	IC50 (MOLM-13 cells; [4])	Structure (SMILES)	other results
100 to 1000 nM	100 to 1000 nM	> 1000 nM	100 to 1000 nM	O=C1CCC(N2C(=O)c3ccc(CCCCCCCn4cc(-c5cnc6ccccc6n5)cn4)cc3C2=O)C(=O)N1 (stereo not shown) [GS-352, 2-(2,6-Dioxopiperidin-3-yl)-5-(7-(4-(quinoxalin-2-yl)-1H-pyrazol-1-yl)heptyl)isoindoline-1,3-dione]	–
10 to 100 nM	–	100 to 1000 nM	–	O=C1CCC(N2C(=O)c3ccc(NCCC[C@H]4C[C@H](n5cc(-c6cccc(N7CCC7)n6)cn5)C4)cc3C2=O)C(=O)N1 (stereo partly drawn) [GS-451, 5-((3-(trans-3-(4-(6-(azetidin-1-yl)pyridin-2-yl)-1H-pyrazol-1-yl)cyclobutyl)propyl)amino)-2-(2,6-dioxopiperidin-3-yl)isoindoline-1,3-dione]	IC50 (MV4;11 cells; [5]): 10 to 100 nM; IC50 (MOLM-13 cells; [6]): 10 to 100 nM
< 10 nM	–	10 to 100 nM	–	O=C1CCC(N2C(=O)c3ccc(NC[C@H]4C[C@H](n5nc(C6CC6)c6ccccc65)C4)cc3C2=O)C(=O)N1 (stereo partly drawn) [GS-442, 5-(((trans-3-(3-cyclopropyl-1H-indazol-1-yl)cyclobutyl)methyl)amino)-2-(2,6-dioxopiperidin-3-yl)isoindoline-1,3-dione]	IC50 (MV4;11 cells; [5]): < 10 nM; IC50 (MOLM-13 cells; [6]): < 10 nM
10 to 100 nM	< 10 nM	10 to 100 nM	< 10 nM	O=C1CCC(N2C(=O)c3ccc(NC[C@H]4C[C@H](n5cc(-c6cnc7ccc(N8CCOCC8)cc7n6)cn5)C4)cc3C2=O)C(=O)N1 (stereo partly drawn) [GS-191, 2-(2,6-Dioxopiperidin-3-yl)-5-(((trans-3-(4-(7-morpholinoquinoxalin-2-yl)-1H-pyrazol-1-yl)cyclobutyl)methyl)amino)isoindoline-1,3-dione]	–
> 1000 nM	> 1000 nM	> 1000 nM	> 1000 nM	O=C(CN1CCCC(n2cc(-c3cnc4ccccc4n3)cn2)C1)NCc1ccc2c(c1)C(=O)N(C1CCC(=O)NC1=O)C2=O (stereo not shown) [GS-346, N-((2-(2,6-Dioxopiperidin-3-yl)-1,3-dioxoisoindolin-5-yl)methyl)-2-(3-(4-(quinoxalin-2-yl)-1H-pyrazol-1-yl)piperidin-1-yl)acetamide]	–
100 to 1000 nM	< 10 nM	> 1000 nM	< 10 nM	O=C1CCC(N2C(=O)c3ccc(NCCCCCC(=O)N4CCC(n5cc(-c6cnc7cccc(N8CCOCC8)c7n6)cn5)CC4)cc3C2=O)C(=O)N1 (stereo not shown) [GS-034, 2-(2,6-Dioxopiperidin-3-yl)-5-((6-(4-(4-(8-morpholinoquinoxalin-2-yl)-1H-pyrazol-1-yl)piperidin-1-yl)-6-oxohexyl)amino)isoindoline-1,3-dione]	–

The remaining lines, values behind:

Structure (SMILES)	IC50 (MV4;11 cells; [1])	IC50 (MV4;11 cells; [2])	IC50 (MOLM-13 cells; [3])	IC50 (MOLM-13 cells; [4])	other results
O=C1CCC(N2C(=O)c3ccc(NCCC[C@H]4C[C@H](n5cc(-c6cnc7ccc(C8CCNCC8)cc7n6)cn5)C4)cc3C2=O)C(=O)N1 (stereo partly drawn) [GS-199, 2-(2,6-Dioxopiperidin-3-yl)-5-((3-(trans-3-(4-(7-(piperidin-4-yl)quinoxalin-2-yl)-1H-pyrazol-1-yl)cyclobutyl)propyl)amino)isoindoline-1,3-dione]	10 to 100 nM	< 10 nM	100 to 1000 nM	< 10 nM	–
O=C1CCC(N2Cc3c(CNC(=O)c4cccc(N5CCC(n6cc(-c7cnc8ccccc8n7)cn6)CC5)c4)cccc3C2=O)C(=O)N1 (stereo not shown) [GS-509, N-((2-(2,6-Dioxopiperidin-3-yl)-1-oxoisoindolin-4-yl)methyl)-3-(4-(4-(quinoxalin-2-yl)-1H-pyrazol-1-yl)piperidin-1-yl)benzamide]	–	–	–	–	IC50 (MV4;11 cells; MV4-11, 72 h, 11 IC50): < 10 nM; IC50 (MV4;11 cells; MV4-11, 72 h, 11 IC50 gilteritinib): < 10 nM; IC50 (MOLM-13 cells; MOLM-13, 72 h, read-out: MOLM-13 IC50): < 10 nM; IC50 (MOLM-13 cells; MOLM-13, 72 h, read-out: MOLM-13 IC50 gilteritinib): < 10 nM
O=C1CCC(N2Cc3cc(NC(=O)CCCCC(=O)N4CCC(n5cc(-c6cnc7cccc(Br)c7n6)cn5)CC4)ccc3C2=O)C(=O)N1 (stereo not shown) [GS-020, 6-(4-(4-(8-Bromoquinoxalin-2-yl)-1H-pyrazol-1-yl)piperidin-1-yl)-N-(2-(2,6-dioxopiperidin-3-yl)-1-oxoisoindolin-5-yl)-6-oxohexanamide]	–	–	–	–	IC50 (MV4;11 cells; MV4-11, 72 h, MV4;11 cells, with 10 nM gilteritinib, 3 days, CellTiter-Glo, 11 IC50 gilteritinib): 3 nM; IC50 (MV4;11 cells; MV4-11, 72 h, MV4;11 cells, without gilteritinib, 3 days, CellTiter-Glo, 11 IC50): 29 nM; IC50 (MOLM-13 cells; MOLM-13, 72 h, MOLM-13 cells, with 20 nM gilteritinib, 3 days, CellTiter-Glo, read-out: MOLM-13 IC50 gilteritinib): 11 nM; IC50 (MOLM-13 cells; MOLM-13, 72 h, MOLM-13 cells, without gilteritinib, 3 days, CellTiter-Glo, read-out: MOLM-13 IC50): 87 nM
O=C1CCC(N2Cc3ccc(CCCCCCC(=O)N4CCC(c5ccc(Cl)cc5)CC4)cc3C2=O)C(=O)N1 (stereo not shown) [GS-116, 3-(6-(7-(4-(4-Chlorophenyl)piperidin-1-yl)-7-oxoheptyl)-1-oxoisoindolin-2-yl)piperidine-2,6-dione]	–	–	–	–	IC50 (MV4;11 cells; [7]): 10 to 100 nM; IC50 (MV4;11 cells; 72 h, MV4;11 cells, with gilteritinib 10 nM, three days, CellTiter-Glo, 11 IC50 gilteritinib): < 10 nM; IC50 (MOLM-13 cells; [8]): 100 to 1000 nM; IC50 (MOLM-13 cells; 72 h, MOLM-13 cells, with gilteritinib 20 nM, three days, CellTiter-Glo, read-out: MOLM-13 IC50 gilteritinib): < 10 nM
O=C1CCC(N2C(=O)c3ccc(C4CN(CCCCn5cc(-c6cnc7ccccc7n6)cn5)C4)cc3C2=O)C(=O)N1 (stereo not shown) [GS-364, 2-(2,6-Dioxopiperidin-3-yl)-5-(1-(4-(4-(quinoxalin-2-yl)-1H-pyrazol-1-yl)butyl)azetidin-3-yl)isoindoline-1,3-dione]	> 1000 nM	> 1000 nM	> 1000 nM	> 1000 nM	–
Cc1cccc2ncc(-c3cnn(CCCCCCNc4ccc5c(c4)C(=O)N(C4CCC(=O)NC4=O)C5=O)c3)nc12 (stereo not shown) [GS-511, 2-(2,6-Dioxopiperidin-3-yl)-5-((6-(4-(8-methylquinoxalin-2-yl)-1H-pyrazol-1-yl)hexyl)amino)isoindoline-1,3-dione]	100 to 1000 nM	–	100 to 1000 nM	–	IC50 (MV4;11 cells; [5]): 10 to 100 nM; IC50 (MOLM-13 cells; [6]): < 10 nM
O=C1CCC(N2C(=O)c3ccc(NC[C@H]4C[C@H](n5cc(C6CCCCC6)c(C6CC6)n5)C4)cc3C2=O)C(=O)N1 (stereo partly drawn) [GS-468, 5-(((trans-3-(4-cyclohexyl-3-cyclopropyl-1H-pyrazol-1-yl)cyclobutyl)methyl)amino)-2-(2,6-dioxopiperidin-3-yl)isoindoline-1,3-dione]	10 to 100 nM	–	100 to 1000 nM	–	IC50 (MV4;11 cells; [5]): 10 to 100 nM; IC50 (MOLM-13 cells; [6]): 10 to 100 nM
Cc1nn([C@H]2C[C@H](CCCNc3ccc4c(c3)C(=O)N(C3CCC(=O)NC3=O)C4=O)C2)cc1-c1cccc(N2CCOCC2)n1 (stereo partly drawn) [GS-244, 2-(2,6-Dioxopiperidin-3-yl)-5-((3-(trans-3-(3-methyl-4-(6-morpholinopyridin-2-yl)-1H-pyrazol-1-yl)cyclobutyl)propyl)amino)isoindoline-1,3-dione]	100 to 1000 nM	10 to 100 nM	> 1000 nM	10 to 100 nM	–
O=C1CCC(N2C(=O)c3ccc(NCCCCS(=O)(=O)N4CCC(n5cc(-c6cnc7ccccc7n6)cn5)CC4)cc3C2=O)C(=O)N1 (stereo not shown) [GS-129, 2-(2,6-Dioxopiperidin-3-yl)-5-((4-((4-(4-(quinoxalin-2-yl)-1H-pyrazol-1-yl)piperidin-1-yl)sulfonyl)butyl)amino)isoindoline-1,3-dione]	> 1000 nM	100 to 1000 nM	> 1000 nM	100 to 1000 nM	–
CN1CCC(Nc2ccnc(-c3cn([C@H]4C[C@H](CNc5ccc6c(c5)C(=O)N(C5CCC(=O)NC5=O)C6=O)C4)nc3C3CC3)c2)CC1 (stereo partly drawn) [GS-295, 5-(((trans-3-(3-Cyclopropyl-4-(4-((1-methylpiperidin-4-yl)amino)pyridin-2-yl)-1H-pyrazol-1-yl)cyclobutyl)methyl)amino)-2-(2,6-dioxopiperidin-3-yl)isoindoline-1,3-dione]	> 1000 nM	> 1000 nM	> 1000 nM	> 1000 nM	–
O=C1CCC(N2C(=O)c3ccc(NC[C@H]4C[C@H](n5cc(-c6ccncn6)c(C6CC6)n5)C4)cc3C2=O)C(=O)N1 (stereo partly drawn) [GS-601, 5-(((trans-3-(3-Cyclopropyl-4-(pyrimidin-4-yl)-1H-pyrazol-1-yl)cyclobutyl)methyl)amino)-2-(2,6-dioxopiperidin-3-yl)isoindoline-1,3-dione]	–	–	–	–	IC50 (MV4;11 cells; [7]): 10 to 100 nM; IC50 (MV4;11 cells; 72 h, MV4;11 cells, compound with gilteritinib 10 nM, three days, CellTiter-Glo, 11 IC50 gilteritinib): > 1000 nM; IC50 (MOLM-13 cells; [8]): > 1000 nM; IC50 (MOLM-13 cells; 72 h, MOLM-13 cells, compound with gilteritinib 20 nM, three days, CellTiter-Glo, read-out: MOLM-13 IC50 gilteritinib): 10 to 100 nM
Cc1nn([C@H]2C[C@H](CNc3ccc4c(c3)C(=O)N(C3CCC(=O)NC3=O)C4=O)C2)cc1-c1cnc2ccccc2n1 (stereo partly drawn) [GS-200, 2-(2,6-Dioxopiperidin-3-yl)-5-(((trans-3-(3-methyl-4-(quinoxalin-2-yl)-1H-pyrazol-1-yl)cyclobutyl)methyl)amino)isoindoline-1,3-dione]	100 to 1000 nM	10 to 100 nM	100 to 1000 nM	10 to 100 nM	–
O=C1CCC(N2Cc3c(NC4CCCC(Nc5cccc(N6CCC(c7cccc(Cl)c7)CC6)c5)C4)cccc3C2=O)C(=O)N1 (stereo not shown) [GS-135, 3-(4-((3-((3-(4-(3-Chlorophenyl)piperidin-1-yl)phenyl)amino)cyclohexyl)amino)-1-oxoisoindolin-2-yl)piperidine-2,6-dione]	> 1000 nM	100 to 1000 nM	> 1000 nM	> 1000 nM	–

From patent US20240050428A1 (Cullgen (Shanghai), Inc., priority 2020, published 2024)
